#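 Tested at 5 concentrations; 48 h exposure; 96-well plates; endpoints linearly interpolated, else capped at highest concentration. The concentration for 50% growth inhibition is given as GI50. TGI is the concentration that stops growth completely.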
# Tests used:
# Test in all cases: NCI anticancer screen, dose series, 48 h
# 786-0 renal = test system: 786-0 renal
# A498 renal = test system: A498 renal
# A549 NSCLC = test system: A549 NSCLC
# ACHN renal = test system: ACHN renal
# BT-549 breast = test system: BT-549 breast
# CAKI-1 renal = test system: CAKI-1 renal
# CCRF-CEM leukemia = test system: CCRF-CEM leukemia
# COLO 205 colon = test system: COLO 205 colon
# DU-145 prostate = test system: DU-145 prostate
# EKVX NSCLC = test system: EKVX NSCLC
# HCC-2998 colon = test system: HCC-2998 colon
# HCT-116 colon = test system: HCT-116 colon
# HCT-15 colon = test system: HCT-15 colon
# HL-60(TB) leukemia = test system: HL-60(TB) leukemia
# HOP-62 NSCLC = test system: HOP-62 NSCLC
# HOP-92 NSCLC = test system: HOP-92 NSCLC
# HS 578T breast = test system: HS 578T breast
# HT29 colon = test system: HT29 colon
# IGROV1 ovarian = test system: IGROV1 ovarian
# K-562 leukemia = test system: K-562 leukemia
# KM12 colon = test system: KM12 colon
# LOX IMVI melanoma = test system: LOX IMVI melanoma
# M14 melanoma = test system: M14 melanoma
# MALME-3M melanoma = test system: MALME-3M melanoma
# MCF7 breast = test system: MCF7 breast
# MDA-MB-231 breast = test system: MDA-MB-231 breast
# MDA-MB-435 = test system: MDA-MB-435
# MOLT-4 leukemia = test system: MOLT-4 leukemia
# NCI-H226 lung = test system: NCI-H226 lung
# NCI-H23 lung = test system: NCI-H23 lung
# NCI-H460 lung = test system: NCI-H460 lung
# NCI-H522 lung = test system: NCI-H522 lung
# NCI/ADR-RES ovarian = test system: NCI/ADR-RES ovarian
# OVCAR-3 ovarian = test system: OVCAR-3 ovarian
# OVCAR-4 ovarian = test system: OVCAR-4 ovarian
# OVCAR-5 ovarian = test system: OVCAR-5 ovarian
# OVCAR-8 ovarian = test system: OVCAR-8 ovarian
# PC-3 prostate = test system: PC-3 prostate
# RPMI-8226 leukemia = test system: RPMI-8226 leukemia
# RXF 393 renal = test system: RXF 393 renal
# SF-268 CNS = test system: SF-268 CNS
# SF-295 CNS = test system: SF-295 CNS
# SF-539 CNS = test system: SF-539 CNS
# SK-MEL-2 melanoma = test system: SK-MEL-2 melanoma
# SK-MEL-28 melanoma = test system: SK-MEL-28 melanoma
# SK-MEL-5 melanoma = test system: SK-MEL-5 melanoma
# SK-OV-3 ovarian = test system: SK-OV-3 ovarian
# SN12C renal = test system: SN12C renal
# SNB-75 CNS = test system: SNB-75 CNS
# SR leukemia = test system: SR leukemia
# SW-620 colon = test system: SW-620 colon
# T-47D breast = test system: T-47D breast
# U251 CNS = test system: U251 CNS
# UACC-257 melanoma = test system: UACC-257 melanoma
# UACC-62 melanoma = test system: UACC-62 melanoma
# UO-31 renal = test system: UO-31 renal
smiles,measurement,setting,value
C[C@@H](NC(=O)c1ccc(F)cc1)c1ccc2c(c1)CCN2C(=O)C1CCOCC1,GI50,786-0 renal,> 100 µM
same,TGI,786-0 renal,> 100 µM
same,GI50,A498 renal,17.1 µM
same,TGI,A498 renal,88.5 µM
same,GI50,A549 NSCLC,> 100 µM
same,TGI,A549 NSCLC,> 100 µM
same,GI50,ACHN renal,> 100 µM
same,TGI,ACHN renal,> 100 µM
same,GI50,BT-549 breast,> 100 µM
same,TGI,BT-549 breast,> 100 µM
same,GI50,CAKI-1 renal,> 100 µM
same,TGI,CAKI-1 renal,> 100 µM
same,GI50,CCRF-CEM leukemia,> 100 µM
same,TGI,CCRF-CEM leukemia,> 100 µM
same,GI50,COLO 205 colon,> 100 µM
same,TGI,COLO 205 colon,> 100 µM
same,GI50,DU-145 prostate,> 100 µM
same,TGI,DU-145 prostate,> 100 µM
same,GI50,EKVX NSCLC,> 100 µM
same,TGI,EKVX NSCLC,> 100 µM
same,GI50,HCC-2998 colon,> 100 µM
same,TGI,HCC-2998 colon,> 100 µM
same,GI50,HCT-116 colon,> 100 µM
same,TGI,HCT-116 colon,> 100 µM
same,GI50,HCT-15 colon,> 100 µM
same,TGI,HCT-15 colon,> 100 µM
same,GI50,HL-60(TB) leukemia,> 100 µM
same,TGI,HL-60(TB) leukemia,> 100 µM
same,GI50,HOP-62 NSCLC,> 100 µM
same,TGI,HOP-62 NSCLC,> 100 µM
same,GI50,HOP-92 NSCLC,> 100 µM
same,TGI,HOP-92 NSCLC,> 100 µM
same,GI50,HS 578T breast,> 100 µM
same,TGI,HS 578T breast,> 100 µM
same,GI50,HT29 colon,> 100 µM
same,TGI,HT29 colon,> 100 µM
same,GI50,IGROV1 ovarian,> 100 µM
same,TGI,IGROV1 ovarian,> 100 µM
same,GI50,K-562 leukemia,> 100 µM
same,TGI,K-562 leukemia,> 100 µM
same,GI50,KM12 colon,> 100 µM
same,TGI,KM12 colon,> 100 µM
same,GI50,LOX IMVI melanoma,> 100 µM
same,TGI,LOX IMVI melanoma,> 100 µM
same,GI50,M14 melanoma,> 100 µM
same,TGI,M14 melanoma,> 100 µM
same,GI50,MALME-3M melanoma,> 100 µM
same,TGI,MALME-3M melanoma,> 100 µM
same,GI50,MCF7 breast,> 100 µM
same,TGI,MCF7 breast,> 100 µM
same,GI50,MDA-MB-231 breast,> 100 µM
same,TGI,MDA-MB-231 breast,> 100 µM
same,GI50,MDA-MB-435,> 100 µM
same,TGI,MDA-MB-435,> 100 µM
same,GI50,MOLT-4 leukemia,> 100 µM
same,TGI,MOLT-4 leukemia,> 100 µM
same,GI50,NCI-H226 lung,> 100 µM
same,TGI,NCI-H226 lung,> 100 µM
same,GI50,NCI-H23 lung,> 100 µM
same,TGI,NCI-H23 lung,> 100 µM
same,GI50,NCI-H460 lung,> 100 µM
same,TGI,NCI-H460 lung,> 100 µM
same,GI50,NCI-H522 lung,> 100 µM
same,TGI,NCI-H522 lung,> 100 µM
same,GI50,NCI/ADR-RES ovarian,> 100 µM
same,TGI,NCI/ADR-RES ovarian,> 100 µM
same,GI50,OVCAR-3 ovarian,> 100 µM
same,TGI,OVCAR-3 ovarian,> 100 µM
same,GI50,OVCAR-4 ovarian,> 100 µM
same,TGI,OVCAR-4 ovarian,> 100 µM
same,GI50,OVCAR-5 ovarian,> 100 µM
same,TGI,OVCAR-5 ovarian,> 100 µM
same,GI50,OVCAR-8 ovarian,> 100 µM
same,TGI,OVCAR-8 ovarian,> 100 µM
same,GI50,PC-3 prostate,> 100 µM
same,TGI,PC-3 prostate,> 100 µM
same,GI50,RPMI-8226 leukemia,> 100 µM
same,TGI,RPMI-8226 leukemia,> 100 µM
same,GI50,RXF 393 renal,> 100 µM
same,TGI,RXF 393 renal,> 100 µM
same,GI50,SF-268 CNS,> 100 µM
same,TGI,SF-268 CNS,> 100 µM
same,GI50,SF-295 CNS,> 100 µM
same,TGI,SF-295 CNS,> 100 µM
same,GI50,SF-539 CNS,> 100 µM
same,TGI,SF-539 CNS,> 100 µM
same,GI50,SK-MEL-2 melanoma,> 100 µM
same,TGI,SK-MEL-2 melanoma,> 100 µM
same,GI50,SK-MEL-28 melanoma,> 100 µM
same,TGI,SK-MEL-28 melanoma,> 100 µM
same,GI50,SK-MEL-5 melanoma,> 100 µM
same,TGI,SK-MEL-5 melanoma,> 100 µM
same,GI50,SK-OV-3 ovarian,> 100 µM
same,TGI,SK-OV-3 ovarian,> 100 µM
same,GI50,SN12C renal,> 100 µM
same,TGI,SN12C renal,> 100 µM
same,GI50,SNB-75 CNS,79.2 µM
same,TGI,SNB-75 CNS,> 100 µM
same,GI50,SR leukemia,> 100 µM
same,TGI,SR leukemia,> 100 µM
same,GI50,SW-620 colon,> 100 µM
same,TGI,SW-620 colon,> 100 µM
same,GI50,T-47D breast,> 100 µM
same,TGI,T-47D breast,> 100 µM
same,GI50,U251 CNS,> 100 µM
same,TGI,U251 CNS,> 100 µM
same,GI50,UACC-257 melanoma,> 100 µM
same,TGI,UACC-257 melanoma,> 100 µM
same,GI50,UACC-62 melanoma,93.5 µM
same,TGI,UACC-62 melanoma,> 100 µM
same,GI50,UO-31 renal,> 100 µM
same,TGI,UO-31 renal,> 100 µM

# — PubChem BioAssay (NCI)
